The values below come from patent publication US20240409556A1, “BENZOPIPERAZINE AND RELATED ANALOGS FOR INHIBITING YAP/TAZ-TEAD” (Springworks Therapeutics, Inc., priority 2023, published 2024).

What all share (assay type): cell-based
In assay [1] the test system is YAP/TAZ-TEAD transcription. The assay is described as follows: Reporter gene assay for measuring the inhibition of YAP/TAZ-TEAD transcription (TEAD-responsive element luciferase reporter in Hek293T cells). Particulars: 24 hours incubation. The method, boiled down:
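HEK293T cells transiently transfected with a TEAD-responsive luciferase reporter were exposed to compounds for 24 h at 37° C/5% CO2, then luminescence was read. Percent inhibition normalised to vehicle (0%) and positive-control inhibitor (100%); IC50 derived.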
(In general: Reporter assays use an easily measured gene product as a stand-in for the process of interest.)

For assay [2], the system named is NCI-H226 mesothelioma cell line. The assay is described as follows: Mesothelioma cell line proliferation assay, NCI-H226 (ATPlite). To be noted: NCI-H226 cells, 6 days with compound, cell viability by ATPlite. As to the method:
(§1) Example 57: Activity of Compounds of the Disclosure in Mesothelioma Cell Line Proliferation Assays
(§2) Mesothelioma cell lines, NCI-H226 and NCI-H2052 (both sourced from the ATCC cell culture collection) were plated in 96-well plates (Corning® 96 Well White Polystyrene Microplate clear flat bottom, white polystyrene (TC-Treated)), at 1500 cells/well in full medium (RPMI 1640 ATCC modification with L-glutamine, HEPES, Phenol Red, Sodium Pyruvate, High glucose, Low sodium bicarbonate and 10% fetal bovine serum). Cells were incubated overnight at 37° C. in an incubator with 5% CO2. Then compounds, dissolved in DMSO, were added in dose-response. Cells were incubated with compound dilutions for another 6 days at 37° C. in an incubator with 5% CO2. Cell viability was quantitated using the ATPlite kit (Perkin-Elmer) and the luminescence was read-out using an Envision instrument (Perkin-Elmer). The amount of relative light units produced using the ATPlite kit was used to calculate percent of inhibition.
(§3) The activities of some example compounds are depicted in Table 4. The activity ranges A, B and C refer to EC50 values in the mesothelioma cell line proliferation assay as described as follows: “A”: EC50<1 μM; “B”: 1 μM≤EC50≤10 μM and “C”: EC50>10 μM; NT: not tested.
In general terms: In ATP-based viability assays light output follows the ATP content of the culture.

The subject of assay [3] is NCI-H2052 mesothelioma cell line. The assay is described as follows: Mesothelioma cell line proliferation assay, NCI-H2052 (ATPlite). To be noted: NCI-H2052 cells, 6 days with compound, cell viability by ATPlite. How it is done:
as §1, §2, §3

Usually IC50 stands for the point on the concentration scale where inhibition reaches its midpoint. As usually defined, the EC50 is the concentration that produces a half-maximal response. In assay [1], `C=CC(=O)N1CCN2c3ccccc3N(c3ccc(C(F)(F)F)cc3)CC2C1` (single isomer, unassigned) [14-En1, (R)- or (S)-1-(6-(4-(trifluoromethyl)phenyl)-1,2,4,4a,5,6-hexahydro-3H-pyrazino[1,2-a]quinoxalin-3-yl)prop-2-en-1-one] yielded an IC50 of under 1 µM. Besides, the EC50 in assay [2] (Homo sapiens, 144 h) is under 1 µM; in assay [3] (Homo sapiens, 144 h), under 1 µM.
With `C=CC(=O)N1CCN2c3ccccc3N(c3ccc(C(F)(F)F)cc3)CC2C1` (single isomer, unassigned) [14-En2, (R)- or (S)-1-(6-(4-(trifluoromethyl)phenyl)-1,2,4,4a,5,6-hexahydro-3H-pyrazino[1,2-a]quinoxalin-3-yl)prop-2-en-1-one], the IC50 in assay [1] is under 1 µM. For the same compound, the EC50 in assay [2] and in assay [3] was under 1 µM each time.
Turning to `CC(=O)N1CCN2c3ccccc3N(c3ccc(C(F)(F)F)cc3)CC2C1` (single isomer, unassigned) [15-En2, (R)- or (S)-1-(6-(4-(trifluoromethyl)phenyl)-1,2,4,4a,5,6-hexahydro-3H-pyrazino[1,2-a]quinoxalin-3-yl)ethan-1-one], the IC50 in assay [1] was under 1 µM. Also, the EC50 in assay [2] and in assay [3] was under 1 µM throughout.
In turn, `C=CC(=O)NCC1CN(c2ccc(C(F)(F)F)cc2)c2cccnc2N1C` (single isomer, unassigned) [27-En1] showed an IC50 in assay [1] (Homo sapiens, HEK-293T, 24 h) of under 1 µM. Besides, the EC50 in assay [2] (Homo sapiens, 144 h) was under 1 µM; in assay [3] (Homo sapiens, 144 h), under 1 µM.
`C=CC(=O)NCC1CN(c2ccc(C(F)(F)F)cc2)c2cccnc2N1C` (single isomer, unassigned) [27-En2] yielded an IC50 in assay [1] of under 1 µM. The EC50 in assay [2] and in assay [3] was under 1 µM throughout.
As for `CC(=O)N1CCN2c3ncccc3N(c3ccc(C(F)(F)F)cc3)CC2C1` (single isomer, unassigned) [29-En1, (R)- or (S)-1-(5-(4-(trifluoromethyl)phenyl)-5,6,6a,7,9,10-hexahydro-8H-pyrazino[1,2-a]pyrido[3,2-e]pyrazin-8-yl)ethan-1-one], in assay [1] (Homo sapiens, HEK-293T, 24 h), the IC50 is under 1 µM. For the same compound, the EC50 in assay [2] (Homo sapiens, 144 h) is under 1 µM; in assay [3] (Homo sapiens, 144 h) it was under 1 µM.
`CC(=O)N1CCN2c3nccnc3N(c3ccc(C(F)(F)F)cc3)CC2C1` (single isomer, unassigned) [40-En1, (R)- or (S)-1-(5-(4-(trifluoromethyl)phenyl)-5,6,6a,7,9,10-hexahydro-8H-dipyrazino[1,2-a:2′,3′-e]pyrazin-8-yl)ethan-1-one] registered an IC50 in assay [1] of under 1 µM. Besides, the EC50 in assay [2] (Homo sapiens, 144 h) is under 1 µM; in assay [3] (Homo sapiens, 144 h), under 1 µM.
In assay [1], `CNS(=O)(=O)N1CCN2c3ncccc3N(c3ccc(C(F)(F)F)cc3)CC2C1` (single isomer, unassigned) [45-En2, (R)- or (S)-N-methyl-5-(4-(trifluoromethyl)phenyl)-5,6,6a,7,9,10-hexahydro-8H-pyrazino[1,2-a]pyrido[3,2-e]pyrazine-8-sulfonamide] showed an IC50 of under 1 µM. The concentration giving a half-maximal response (EC50) in assay [2] (Homo sapiens, 144 h) was under 1 µM; in assay [3] (Homo sapiens, 144 h), under 1 µM.
In assay [1], `CC(C)C(=O)N1CCN2c3ncccc3N(c3ccc(C(F)(F)F)cc3)CC2C1` (single isomer, unassigned) [47-En1, (R)- or (S)-2-methyl-1-(5-(4-(trifluoromethyl)phenyl)-5,6,6a,7,9,10-hexahydro-8H-pyrazino[1,2-a]pyrido[3,2-e]pyrazin-8-yl)propan-1-one] gave an IC50 of under 1 µM. Also, the EC50 in assay [2] (Homo sapiens, 144 h) is under 1 µM; in assay [3] (Homo sapiens, 144 h) it was under 1 µM.
On to `CC(=O)NCC1CN(c2ccc(C(F)(F)F)cc2)c2cccnc2O1` (single isomer, unassigned) [49-En1, (R)- or (S)-N-((1-(4-(trifluoromethyl)phenyl)-2,3-dihydro-1H-pyrido[2,3-b][1,4]oxazin-3-yl)methyl)acetamide], for which the IC50 in assay [1] was under 1 µM. Moreover, the EC50 in assay [2] (Homo sapiens, 144 h) is under 1 µM; in assay [3] (Homo sapiens, 144 h), under 1 µM.
In the case of `CNC(=O)N1CCN2c3ncccc3N(c3ccc(C(F)(F)F)cc3)CC2C1` (single isomer, unassigned) [52-En2, (R)- or (S)-N-methyl-5-(4-(trifluoromethyl)phenyl)-5,6,6a,7,9,10-hexahydro-8H-pyrazino[1,2-a]pyrido[3,2-e]pyrazine-8-carboxamide], the IC50 in assay [1] is under 1 µM. The EC50 in assay [2] (Homo sapiens, 144 h) is under 1 µM; in assay [3] (Homo sapiens, 144 h), under 1 µM.
Consider `CC(=O)NCC1CN(c2ccc(C(F)(F)F)cc2)c2cc(Cl)cnc2O1` (single isomer, unassigned) [75-En2, (R)- or (S)-N-((7-chloro-1-(4-(trifluoromethyl)phenyl)-2,3-dihydro-1H-pyrido[2,3-b][1,4]oxazin-3-yl)methyl)acetamide], for which the IC50 in assay [1] is under 1 µM. The EC50 is under 1 µM in assay [2] (Homo sapiens, 144 h) and under 1 µM in assay [3] (Homo sapiens, 144 h).
For `CC(=O)NCC1CN(c2ccc(C(F)(F)F)cc2)c2ccc(C)nc2O1` (single isomer, unassigned) [77-En1, (R)- or (S)-N-((6-methyl-1-(4-(trifluoromethyl)phenyl)-2,3-dihydro-1H-pyrido[2,3-b][1,4]oxazin-3-yl)methyl)acetamide], the IC50 in assay [1] was under 1 µM. For the same compound, the EC50 was under 1 µM in assay [2] (Homo sapiens, 144 h) and under 1 µM in assay [3] (Homo sapiens, 144 h).
In the case of `CC(=O)NCC1CN(c2ccc(C(F)(F)F)cc2)c2ccc(C3CC3)nc2O1` (single isomer, unassigned) [81-En1, (R)- or (S)-N-((6-cyclopropyl-1-(4-(trifluoromethyl)phenyl)-2,3-dihydro-1H-pyrido[2,3-b][1,4]oxazin-3-yl)methyl)acetamide], the IC50 in assay [1] (Homo sapiens, HEK-293T, 24 h) is under 1 µM. Moreover, the EC50 in assay [2] (Homo sapiens, 144 h) is under 1 µM; in assay [3] (Homo sapiens, 144 h), under 1 µM.
With `CC(=O)NCC1CN(c2ccc(C(F)(F)F)cc2)c2ccc(N(C)C)nc2O1` (single isomer, unassigned) [87-En1, (R)- or (S)-N-((6-(dimethylamino)-1-(4-(trifluoromethyl)phenyl)-2,3-dihydro-1H-pyrido[2,3-b][1,4]oxazin-3-yl)methyl)acetamide], the IC50 in assay [1] is under 1 µM. Moreover, the EC50 is under 1 µM in assay [2] (Homo sapiens, 144 h) and under 1 µM in assay [3] (Homo sapiens, 144 h).
`C=CC(=O)NC[C@H]1CN(c2ccc(C(F)(F)F)cc2)c2cccnc2N1` [38-En1, (S)—N-((1-(4-(trifluoromethyl)phenyl)-1,2,3,4-tetrahydropyrido[2,3-b]pyrazin-3-yl)methyl)acrylamide] displayed an IC50 in assay [1] (Homo sapiens, HEK-293T, 24 h) of under 1 µM. Moreover, the EC50 in assay [2] (Homo sapiens, 144 h) was under 1 µM; in assay [3] (Homo sapiens, 144 h), under 1 µM.
For the compound `C=CC(=O)N1CCN2c3nccnc3N(c3ccc(C(F)(F)F)cc3)CC2C1` (centres unmarked) [41-En1, 1-(5-(4-(trifluoromethyl)phenyl)-5,6,6a,7,9,10-hexahydro-8H-dipyrazino[1,2-a:2′,3′-e]pyrazin-8-yl)prop-2-en-1-one], the EC50 was under 1 µM in assay [2] (Homo sapiens, 144 h) and under 1 µM in assay [3] (Homo sapiens, 144 h).
For `C=CC(=O)N1CCN2c3nccnc3N(c3ccc(C(F)(F)F)cc3)CC2C1` (centres unmarked) [41-En2, 1-(5-(4-(trifluoromethyl)phenyl)-5,6,6a,7,9,10-hexahydro-8H-dipyrazino[1,2-a:2′,3′-e]pyrazin-8-yl)prop-2-en-1-one], the EC50 in assay [2] and in assay [3] was under 1 µM in each case.
For the compound `C=CC(=O)NCC1CN(c2ccc(C(F)(F)F)cc2)c2cccnc2O1` (centres unmarked) [48-En1, N-((1-(4-(trifluoromethyl)phenyl)-2,3-dihydro-1H-pyrido[2,3-b][1,4]oxazin-3-yl)methyl)acrylamide], the EC50 in assay [2] (Homo sapiens, 144 h) is under 1 µM; in assay [3] (Homo sapiens, 144 h), under 1 µM.
Turning to `C=CC(=O)NCC1CN(c2ccc(C(F)(F)F)cc2)c2cccnc2O1` (centres unmarked) [48-En2, N-((1-(4-(trifluoromethyl)phenyl)-2,3-dihydro-1H-pyrido[2,3-b][1,4]oxazin-3-yl)methyl)acrylamide], the EC50 in assay [2] and in assay [3] was under 1 µM each time.
`O=C(O)C1CCN2c3ccccc3N(c3ccc(C(F)(F)F)cc3)CC2C1` (stereo not drawn) [65B, (cis)- or (trans)-5-(4-(trifluoromethyl)phenyl)-6,6a,7,8,9,10-hexahydro-5H-pyrido[1,2-a]quinoxaline-8-carboxylic acid]: the EC50 in assay [2] (Homo sapiens, 144 h) is under 1 µM; in assay [3] (Homo sapiens, 144 h), under 1 µM.
`O=C(O)C1CCN2c3ncccc3N(c3ccc(C(F)(F)F)cc3)CC2C1` [96B-En1, (6aS,8S)- or (6aR,8S)- or (6aR,8R)- or (6aS,8R)-5-(4-(trifluoromethyl)phenyl)-6,6a,7,8,9,10-hexahydro-5H-dipyrido[1,2-a:3′,2′-e]pyrazine-8-carboxylic acid]: the EC50 in assay [2] (Homo sapiens, 144 h) was under 1 µM; in assay [3] (Homo sapiens, 144 h) it was under 1 µM.
Take `C=CC(=O)N1CCN2c3ccccc3N(c3ccc(C(F)(F)F)cc3)CC2C1` (centres unmarked) [compound 14, 1-(6-(4-(trifluoromethyl)phenyl)-1,2,4,4a,5,6-hexahydro-3H-pyrazino[1,2-a]quinoxalin-3-yl)prop-2-en-1-one]: in assay [1] (Homo sapiens, HEK-293T, 24 h), the IC50 was under 1 µM. Further, in assay [2], the EC50 is under 1 µM.
